We go through one compound from patent publication US10669289B2, “Boronic acid derivatives” (MERCK PATENT GMBH, priority 2014, dated 2020).

Assay [1] deals with human constitutive proteasome (Beta5) (Homo sapiens (Human), UniProt P28074). The assay is described as follows: Determination of Beta5 activity (fluorescence intensity assay, Suc-LLVY-AMC). The following applies: long incubation (120 min). The format is biochemical. Summed up: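 Purified human constitutive proteasome (1.25 nM) preincubated with compounds (30 μM–15 pM) for 20 min (default) or 120 min at 25 °C in 50 mM Tris pH 7.4, 0.03% SDS, 1 mM EDTA, 1% DMSO. Suc-LLVY-AMC substrate at 40 μM, 60 min at 37 °C. Fluorescence read at ex 350/em 450 nm.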

Assay [2] has as its target human immuno proteasome (LMP7) (Homo sapiens (Human), UniProt P28062). The assay is described as follows: Determination of LMP7 activity (fluorescence intensity assay, Suc-LLVY-AMC). The format is biochemical. Summed up: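 Fluorogenic Suc-LLVY-AMC cleavage (40 μM substrate, 60 min, 37° C., ex 350/em 450 nm) measured after 0.25 nM human immunoproteasome was exposed to compound at 30 μM–15 pM. Preincubation was 20 min by default or 120 min (long) at 25° C., in Tris pH 7.4 with 0.03% SDS, 1 mM EDTA and 1% DMSO.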

In the case of `C=CC(=O)N(CC)CC(=O)N[C@@H](Cc1ccc(Cl)c(Cl)c1)B(O)O` [Compound No. 65, [(1R)-2-(3,4-dichlorophenyl)-1-[[2-[ethyl(prop-2-enoyl)amino]acetyl]amino]ethyl]boronic Acid], the IC50 was over 5000 nM in assay [1] and under 50 nM in assay [2] (long incubation (120 min)). The “Selectivity LMP7 vs Beta5” value in assay [2] (LMP7 versus Beta5, long incubation (120 min)) is reported as “+++++ (Selectivity ≥ 150)”.

The IC50 is the concentration needed to halve the response being measured. A high value points to lower potency.
